Measured values published in US10668056B2, “Pharmaceutical composition comprising indole derivatives, process for preparation and use thereof” (VIVOLUX AB, priority 2015, dated 2020).

Key:
[1] = Stability study of lyophilised powder, 2-8° C.; assay type: physicochemical; conditions: for Any individual purity / Assay / RRT 1.13 (impurity) / RRT 1.23-1.24 (impurity) / RRT 1.47-1.51 (impurity) / Specified impurity* (hydrolysis impurity) / Total impurities / Water content / Z-isomer RRT 0.92-0.93 / pH: 2-8° C.
[2] = Stability of compound A2 in aqueous media; assay type: physicochemical
Method: Also, it is understood that the pH is of significance for the stability of compound A2 in aqueous media with the best stability at pH around 1-4, higher concentration of the substance results in lower pH. 1 mg/ml of said aqueous solution has a pH about 2-3.

[3] = Solubility of lyophilisate in water; assay type: physicochemical
Method: Glucose and mannitol were evaluated as excipients, both alone and in combination with NaCl. The best result regarding solubility, texture of the lyophilised cake and suppression of impurity formation was obtained with 5% (w/v) mannitol as additive.
The best result concerning formation of impurities and texture of the freeze dried cake was obtained with the freeze drying cycle described in Table 3 and the mannitol content set at 5%.

[4] = Stability study of lyophilised powder, accelerated 25° C./60% RH
Method: The stability study of the di-hydrochloride ethanol co-crystal precipitate and of the lyophilized di-hydrochloride salt was conducted in accordance with the International Conference on Harmonizations (ICH) guideline Q1A (R2) Stability Testing of New Drug Substances and Products. All analytical instruments used to analyze the stability samples during the study are qualified in compliance with current cGMP.
The LOQ is 0.05%, peaks <than LOQ was recorded as <0.05%.

CC(=NNc1nnc2c(n1)[nH]c1c(C)cccc12)c1ccccn1.Cl.Cl [Compound A2]
appearance ([1]; 2-8° C. up to 24 months): yellow to orange freeze dried cake during the whole test period
appearance after reconstitution ([1]; 2-8° C. up to 24 months): yellow to orange solution without visible particles
Any individual purity ([1]; 0 months): 0.4%
Assay ([1]; 0 months): 97.8 % w/w
RRT 1.13 (impurity) ([1]; 0 months): 0.05%
RRT 1.23-1.24 (impurity) ([1]; 0 months): 0.06%
RRT 1.47-1.51 (impurity) ([1]; 0 months): 0.37%
Specified impurity* (hydrolysis impurity) ([1]; 0 months): <0.5%
Total impurities ([1]; 0 months): 0.7%
Water content ([1]; 0 months): 0.33%
Z-isomer RRT 0.92-0.93 ([1]; 0 months): 0.1%
pH ([1]; 0 months): 1.6
Any individual purity ([1]; 1 month): 0.3%
Assay ([1]; 1 month): 98.4 % w/w
RRT 1.13 (impurity) ([1]; 1 month): <0.05%
RRT 1.23-1.24 (impurity) ([1]; 1 month): 0.05%
RRT 1.47-1.51 (impurity) ([1]; 1 month): 0.32%
Specified impurity* (hydrolysis impurity) ([1]; 1 month): <0.05%
Total impurities ([1]; 1 month): 0.5%
Water content ([1]; 1 month): 0.41%
Z-isomer RRT 0.92-0.93 ([1]; 1 month): 0.1%
pH ([1]; 1 month): 1.6
Any individual purity ([1]; 3 months): 0.1%
Assay ([1]; 3 months): 95.9 % w/w
RRT 1.13 (impurity) ([1]; 3 months): <0.05%
RRT 1.23-1.24 (impurity) ([1]; 3 months): 0.08%
RRT 1.47-1.51 (impurity) ([1]; 3 months): 0.05%
Specified impurity* (hydrolysis impurity) ([1]; 3 months): <0.05%
Total impurities ([1]; 3 months): 0.3%
Water content ([1]; 3 months): 0.47%
Z-isomer RRT 0.92-0.93 ([1]; 3 months): 0.1%
pH ([1]; 3 months): 1.6
Any individual purity ([1]; 6 months): 0.1%
Assay ([1]; 6 months): 97.3 % w/w
RRT 1.13 (impurity) ([1]; 6 months): <0.05%
RRT 1.23-1.24 (impurity) ([1]; 6 months): 0.05%
RRT 1.47-1.51 (impurity) ([1]; 6 months): <0.05%
Specified impurity* (hydrolysis impurity) ([1]; 6 months): 0.08%
Total impurities ([1]; 6 months): 0.4%
Water content ([1]; 6 months): 0.37%
Z-isomer RRT 0.92-0.93 ([1]; 6 months): 0.1%
pH ([1]; 6 months): 1.5
Any individual purity ([1]; 12 months): 0.1%
Assay ([1]; 12 months): 93.9 % w/w
RRT 1.13 (impurity) ([1]; 12 months): <0.05%
RRT 1.23-1.24 (impurity) ([1]; 12 months): 0.06%
RRT 1.47-1.51 (impurity) ([1]; 12 months): <0.05%
Specified impurity* (hydrolysis impurity) ([1]; 12 months): 0.08%
Total impurities ([1]; 12 months): 0.2%
Water content ([1]; 12 months): 0.53%
Z-isomer RRT 0.92-0.93 ([1]; 12 months): <0.05%
pH ([1]; 12 months): 1.6
Any individual purity ([1]; 18 months): 0.1%
Assay ([1]; 18 months): 94.6 % w/w
RRT 1.13 (impurity) ([1]; 18 months): 0.05%
RRT 1.23-1.24 (impurity) ([1]; 18 months): 0.05%
RRT 1.47-1.51 (impurity) ([1]; 18 months): 0.05%
Specified impurity* (hydrolysis impurity) ([1]; 18 months): 0.10%
Total impurities ([1]; 18 months): 0.3%
Water content ([1]; 18 months): 0.43%
Z-isomer RRT 0.92-0.93 ([1]; 18 months): <0.05%
pH ([1]; 18 months): 1.6
Any individual purity ([1]; 24 months): 0.10%
Assay ([1]; 24 months): 94.2 % w/w
RRT 1.13 (impurity) ([1]; 24 months): <LOQ
RRT 1.23-1.24 (impurity) ([1]; 24 months): 0.05%
RRT 1.47-1.51 (impurity) ([1]; 24 months): 0.10%
Specified impurity* (hydrolysis impurity) ([1]; 24 months): 0.09%
Total impurities ([1]; 24 months): 0.34%
Water content ([1]; 24 months): 0.39%
Z-isomer RRT 0.92-0.93 ([1]; 24 months): 0.05%
pH ([1]; 24 months): 1.7
bacterial growth / sterility ([1]; 24 months period): No bacterial growth was detected
reconstitution time ([1]; Table 4a study): up to 3 minutes
degradation on storage ([1]; vials crimp sealed under nitrogen, 5° C., 24 months): no degradation was seen
pH of aqueous solution ([2]; 1 mg/ml): 2-3
pH of best stability ([2]; aqueous media): 1-4
time over which formation of by-products is suppressed ([2]; aqueous media, 1 mg/ml): up to 24 hrs
hydrolysis in aqueous solvents ([2]; aqueous solvents): readily hydrolyses
solubility in water ([3]; after lyophilisation versus prior to (A1)): less soluble in water
solubility on addition of NaCl ([3]; increase in pH generated by NaCl): decreased the solubility
bacterial growth / sterility ([4]; 24 months period in room temperature): No bacterial growth was detected
appearance ([4]; 25° C./60% RH): yellow to orange freeze dried cake during the whole test period
appearance after reconstitution ([4]; 25° C./60% RH): yellow to orange solution without visible particles
reconstitution time ([4]; 25° C./60% RH): up to 3 minutes
Any individual purity ([4]; 25° C./60% RH, 0 months): 0.4%
Assay ([4]; 25° C./60% RH, 0 months): 97.8 % w/w
RRT 1.13 (impurity) ([4]; 25° C./60% RH, 0 months): 0.05%
RRT 1.23-1.24 (impurity) ([4]; 25° C./60% RH, 0 months): 0.06%
RRT 1.47-1.51 (impurity) ([4]; 25° C./60% RH, 0 months): 0.37%
Specified impurity* (hydrolysis impurity) ([4]; 25° C./60% RH, 0 months): <0.5%
Total impurities ([4]; 25° C./60% RH, 0 months): 0.7%
Water content ([4]; 25° C./60% RH, 0 months): 0.33%
Z-isomer RRT 0.92-0.93 ([4]; 25° C./60% RH, 0 months): 0.1%
pH ([4]; 25° C./60% RH, 0 months): 1.6
Any individual purity ([4]; 25° C./60% RH, 1 month): 0.1%
Assay ([4]; 25° C./60% RH, 1 month): 97.2 % w/w
RRT 1.13 (impurity) ([4]; 25° C./60% RH, 1 month): <0.05%
RRT 1.23-1.24 (impurity) ([4]; 25° C./60% RH, 1 month): 0.05%
RRT 1.47-1.51 (impurity) ([4]; 25° C./60% RH, 1 month): 0.13%
Specified impurity* (hydrolysis impurity) ([4]; 25° C./60% RH, 1 month): 0.1%
Total impurities ([4]; 25° C./60% RH, 1 month): 0.3%
Water content ([4]; 25° C./60% RH, 1 month): 0.39%
Z-isomer RRT 0.92-0.93 ([4]; 25° C./60% RH, 1 month): <0.05%
pH ([4]; 25° C./60% RH, 1 month): 1.6
Any individual purity ([4]; 25° C./60% RH, 3 months): 0.2%
Assay ([4]; 25° C./60% RH, 3 months): 95.4 % w/w
RRT 1.13 (impurity) ([4]; 25° C./60% RH, 3 months): <0.05%
RRT 1.23-1.24 (impurity) ([4]; 25° C./60% RH, 3 months): 0.08%
RRT 1.47-1.51 (impurity) ([4]; 25° C./60% RH, 3 months): 0.05%
Specified impurity* (hydrolysis impurity) ([4]; 25° C./60% RH, 3 months): <0.05%
Total impurities ([4]; 25° C./60% RH, 3 months): 0.7%
Water content ([4]; 25° C./60% RH, 3 months): 0.55%
Z-isomer RRT 0.92-0.93 ([4]; 25° C./60% RH, 3 months): 0.1%
pH ([4]; 25° C./60% RH, 3 months): 1.6
Any individual purity ([4]; 25° C./60% RH, 6 months): 0.1%
Assay ([4]; 25° C./60% RH, 6 months): 98.3 % w/w
RRT 1.13 (impurity) ([4]; 25° C./60% RH, 6 months): <0.05%
RRT 1.23-1.24 (impurity) ([4]; 25° C./60% RH, 6 months): 0.06%
RRT 1.47-1.51 (impurity) ([4]; 25° C./60% RH, 6 months): <0.05%
Specified impurity* (hydrolysis impurity) ([4]; 25° C./60% RH, 6 months): 0.08%
Total impurities ([4]; 25° C./60% RH, 6 months): 0.4%
Water content ([4]; 25° C./60% RH, 6 months): 0.45%
Z-isomer RRT 0.92-0.93 ([4]; 25° C./60% RH, 6 months): 0.1%
pH ([4]; 25° C./60% RH, 6 months): 1.5
Any individual purity ([4]; 25° C./60% RH, 12 months): 0.1%
Assay ([4]; 25° C./60% RH, 12 months): 94.6 % w/w
RRT 1.13 (impurity) ([4]; 25° C./60% RH, 12 months): <0.05%
RRT 1.23-1.24 (impurity) ([4]; 25° C./60% RH, 12 months): 0.06%
RRT 1.47-1.51 (impurity) ([4]; 25° C./60% RH, 12 months): <0.05%
Specified impurity* (hydrolysis impurity) ([4]; 25° C./60% RH, 12 months): 0.08%
Total impurities ([4]; 25° C./60% RH, 12 months): 0.2%
Water content ([4]; 25° C./60% RH, 12 months): 0.59%
Z-isomer RRT 0.92-0.93 ([4]; 25° C./60% RH, 12 months): 0.10%
pH ([4]; 25° C./60% RH, 12 months): 1.6
Any individual purity ([4]; 25° C./60% RH, 18 months): 0.1%
Assay ([4]; 25° C./60% RH, 18 months): 93.9 % w/w
RRT 1.23-1.24 (impurity) ([4]; 25° C./60% RH, 18 months): 0.06%
Specified impurity* (hydrolysis impurity) ([4]; 25° C./60% RH, 18 months): 0.10%
Total impurities ([4]; 25° C./60% RH, 18 months): 0.20%
Water content ([4]; 25° C./60% RH, 18 months): 0.49%
Z-isomer RRT 0.92-0.93 ([4]; 25° C./60% RH, 18 months): <0.05%
pH ([4]; 25° C./60% RH, 18 months): 1.5
Any individual purity ([4]; 25° C./60% RH, 24 months): 0.10%
Assay ([4]; 25° C./60% RH, 24 months): 94.5 % w/w
RRT 1.13 (impurity) ([4]; 25° C./60% RH, 24 months): <LOQ
RRT 1.23-1.24 (impurity) ([4]; 25° C./60% RH, 24 months): 0.06%
RRT 1.47-1.51 (impurity) ([4]; 25° C./60% RH, 24 months): 0.09%
Specified impurity* (hydrolysis impurity) ([4]; 25° C./60% RH, 24 months): 0.10%
Total impurities ([4]; 25° C./60% RH, 24 months): 0.36%
Water content ([4]; 25° C./60% RH, 24 months): 0.45%
Z-isomer RRT 0.92-0.93 ([4]; 25° C./60% RH, 24 months): 0.05%
pH ([4]; 25° C./60% RH, 24 months): 1.6
time the lyophilisate is stable ([4]; room temperature): at least 24 months
